Reference: patent US4374284A, “Antiulcer, antiinflammatory, and antiallergic agent comprising as the main ingredient olean-12-ene-3β, 30-diol which is devoid of side effects of glycyrrhetinic acid and a new process for preparation of olean-12-ene-3β, 30-diol” (Minophagen Pharmaceutical Company, priority 1980, dated 1983)

Experiments:
[1] = higher dosages for a long period, clinical; cited from earlier work
[2] = tested on: PCA reaction (type I allergy); test: PCA test (type I allergy); assay type: in vivo, male Wister rats; conditions: serum 1/64, 200 mg/kg intraperitoneally; control 16.4 ± 2.8
Protocol: (a) PCA--Test (type I allergy)
Male Wister rats weighing […] were shaved at the abdomen. After 24 hours, 0.05 ml of serum diluted with saline (Blood samples were diluted to 1/32 and 1/64; The blood samples were collected from rats 3 weeks after administration of pertussis vaccine and egg albumin.) was injected intradermally at the abdomen. After 48 hours, compounds to be tested were administered intraperitoneally. Two hours thereafter, 0.5 ml./100 g of a solution of antigen and pigment (a solution of 0.4% egg albumin and 0.5% Pontamine sky blue) was administered. After 45 minutes, the rats were decapitated and bled, and the diameter of the pigment-leaking site under the skin was measured to obtain the area.

stress-induced ulcer = test: mice experiments on stress-induced ulcer (restraint plus water immersion); assay type: in vivo, male ddY mice; conditions: for inhibitory effect on stress-induced ulcer (in words): 200 mg/kg
Protocol: (a) Mice Experiments on stress-induced ulcer Experimental procedures:
Male ddY mice weighing about 20 g were made to fast for 18 hours. Water was given freely. Compounds to be tested were suspended in Tween 80 to prepare an aqueous suspension and administered orally. Immediately thereafter, the mice were subjected to restraint plus water immersion stress (25° C.) for 6 hours. Thereafter, the stomach was excised and fixed by formalin. The degree of ulcer was shown as a total of the length. The control group was given only the solvent.

[3] = target: T1, Δ^4 -5α-reductase for aldosterone in rat liver (Rattus norvegicus, UniProt P24008); test: inhibitory action on Δ^4-5α-reductase for aldosterone; assay type: biochemical; conditions: for inhibition at 0.173 µM: pH 7.2, read-out: 5α-reductase (inhibition %)
T1 construct: The pellet was appropriately diluted with a solution of 0.25 M sucrose-1 mM EDTA to use as a 5α-reductase solution; from tissue; host or cells: rat liver, 105,000 g pellet
T1 sequence (P24008 1-259): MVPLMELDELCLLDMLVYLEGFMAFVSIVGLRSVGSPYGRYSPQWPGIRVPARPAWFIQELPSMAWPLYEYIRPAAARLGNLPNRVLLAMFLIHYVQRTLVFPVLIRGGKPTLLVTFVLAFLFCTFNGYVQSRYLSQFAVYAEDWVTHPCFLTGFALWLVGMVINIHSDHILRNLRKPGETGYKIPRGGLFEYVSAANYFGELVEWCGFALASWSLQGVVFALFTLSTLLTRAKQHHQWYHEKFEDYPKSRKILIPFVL
Protocol: (§1) In vitro experimental results regarding effects of glycyrrhetinic acid (II) and its modified compounds (III), (IV), and (I) on Δ^4 -5α and 5β-reductase for aldosterone in rat liver will be shown below.
(§2) Assay for activity of Δ^4 -5α and 5β-reductase
(§3) (1) Preparation of enzyme solutions
(§4) Rat livers were perfused with saline and excised to prepare a 25% or 50% homogenate with a solution of 0.25 M sucrose and 1 mM EDTA. The homogenate was spun at 10,000 g for 20 minutes to separate supernatant, which was centrifuged again at 105,000 g to obtain Δ^4 -5β-reductase as the supernatant. The pellet was appropriately diluted with a solution of 0.25 M sucrose-1 mM EDTA to use as a 5α-reductase solution.
(§5) (2) Conditions for incubation and assay
(§6) 1 Aldosterone . . . 0.173 μM/0.05 ml ethanol solution
(§7) 2 Glycyrrhetinic acid or its modified compounds . . . 0.173 μM/0.05 ml ethanol solution Control . . . 0.05 ml ethanol solution
(§8) 5α-reductase solution 0.1 ml
(§9) 5β-reductase solution 0.1 ml or 0.2 ml
(§10) 5 Phosphate buffer (0.1 M, pH 7.2) 1 ml
(§11) The components 1 , 2 , 3 , 4 , 5 , and 6 mentioned above were mixed to bring the total volume up to 2.5 ml. The mixture was incubated at 37° C. for 20 minutes. Before the incubation, however, 1 ml aliquot was removed from 2.5 ml of the mixture mentioned above and extracted with 5 ml of methylene dichloride. After the incubation, the remaining 1.5 ml was extracted with 5 ml of methylene dichloride. The optical density of the two methylene dichloride solutions prepared before and after the incubation was measured by a spectrophotometer (Hitachi) at 240 mμ. Inhibition % of Δ^4 -5α and 5β-reductase activity was calculated from the difference in the optical density.

aspirin-induced ulcer [4] = test: rat experiment on aspirin-induced ulcer, pylorus ligated (experiment a); assay type: in vivo, male Wister rats; conditions: rat, in vivo
Protocol: (b) Rat experiment on aspirin-induced ulcer
(a) Experimental procedures:
Male Wister rats weighing about 220 g were made to fast for 24 hours. Water was given freely. The rats were laparotomized under anesthesia with ether. The stomach was drawn out and ligated at the pylorus. Immediately thereafter, 1% CMC suspension of aspirin was administered orally in a dose of 100 mg/kg/5 ml. Aqueous suspensions of compounds to be tested were prepared in the same manner as in the experiment (a) and administered intraduodenally at the same time. The wound was closed and the rats were set free. After 7 hours, the stomach was excised and ulcer was measured in the same manner as in the experiment (a).

[5] = target: T2, Δ^4 -5β-reductase for aldosterone in rat liver (Rattus norvegicus, UniProt P31210); test: inhibitory action on Δ^4-5β-reductase for aldosterone; assay type: biochemical
T2 construct: centrifuged again at 105,000 g to obtain Δ^4 -5β-reductase as the supernatant; from tissue; host or cells: rat liver, 105,000 g supernatant (cytosol)
T2 sequence (P31210 1-326): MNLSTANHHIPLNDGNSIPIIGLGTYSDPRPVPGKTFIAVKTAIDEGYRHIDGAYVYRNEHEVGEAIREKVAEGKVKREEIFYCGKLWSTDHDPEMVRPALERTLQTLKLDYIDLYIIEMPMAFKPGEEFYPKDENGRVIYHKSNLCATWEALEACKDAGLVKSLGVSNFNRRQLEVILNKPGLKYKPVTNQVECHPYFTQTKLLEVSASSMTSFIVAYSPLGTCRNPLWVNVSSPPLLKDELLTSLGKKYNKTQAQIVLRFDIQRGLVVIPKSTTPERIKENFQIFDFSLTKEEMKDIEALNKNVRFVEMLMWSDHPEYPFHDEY
Protocol: as §1, §2, §3, §4, §5, §6, §7, §8, §9, §10, §11

[6] = tested on: writhing induced by acetic acid; test: effect on writhing induced by acetic acid (analgesic action); assay type: in vivo, male ddY mice; conditions: for number of writhing: 200 mg/kg p.o., counted for 10 minutes, control 24.9 ± 1.6, ** p < 0.01
Protocol: (b) Effect on writhing induced by acetic acid (analgesic action)
The present compound olean-12-ene-3β, 30-diol (I) was administered orally to male ddY mice weighing 25-27 g. After 30 minutes, saline containing 0.7% acetic acid was administered intraperitoneally. The number of writhings of the mice was counted for 10 minutes from, 10 min. of the administration. Aspirin was used as the reference.

[7] = tested on: ulcers induced by acetic acid; test: experiments with rats on ulcers induced by acetic acid (chronic gastric ulcers); assay type: in vivo; design: ulcer value (major axis × minor axis): unit not given here; conditions: for ulcer value (major axis × minor axis): p.o., 14 days
Protocol: (c) Experiments with rats on ulcers induced by acetic acid
Chronic gastric ulcers were induced by penetrating 100% acetic acid serosally into gastric wall for 60 sec. using a small cup (6 mm in diameter, 5 mm in height).
From the next day, compounds to be tested were administered orally twice a day (morning and evening) for 14 days. Autopsies were carried out 15 days after the administrations.

aspirin-induced ulcer [8] = test: rat experiment on aspirin-induced ulcer, oral (experiment b); assay type: in vivo, male Wister rats; conditions: 200 mg/kg p.o., after 5 hours; control 0
Protocol: (b) Experimental procedures:
Male Wister rats weighing 120-140 g were made to fast for 24 hours, and compounds to be tested were administered orally. After 5 hours, the rats were killed by a blow. The stomach was excised and observed for the presence of ulcer.
The size of ulcer was measured by ulcer index (ulcer length×width mm^2).

[9] = tested on: rat paw edema induced with carrageenin; test: test on rat paw edema induced with carrageenin (antiinflammatory); assay type: in vivo, male Wister rats; conditions: 200 mg/kg p.o., after three hours
Protocol: (a) Test on rat paw induced with carrageenin
To the plantar side of the hind paw of male Wister rats was administered subcutaneously 0.05 ml/rat of 10% saline solution of carrageenin. Edema after three hours was measured by the volume method and the rate of inhibition was assayed. Compounds were administered orally 30 minutes before administration of carrageenin. [formula]

[10] = summary in words, liver reductase

For `CC1(C)[C@@H](O[C@H]2O[C@H](C(=O)O)[C@@H](O)[C@H](O)[C@H]2O[C@@H]2O[C@H](C(=O)O)[C@@H](O)[C@H](O)[C@H]2O)CC[C@]2(C)[C@H]3C(=O)C=C4[C@@H]5C[C@@](C)(C(=O)O)CC[C@]5(C)CC[C@@]4(C)[C@]3(C)CC[C@@H]12` [Glycyrrhizin], the “side effect (in words)” value [1] is listed as “pseudoaldosteronism such as hypertension, hypopotassemia, and edema”.

With `CC1(C)[C@@H](O)CC[C@]2(C)[C@H]3C(=O)C=C4[C@@H]5C[C@@](C)(C(=O)O)CC[C@]5(C)CC[C@@]4(C)[C@]3(C)CC[C@@H]12` [II, olean-12-ene-11-oxo-3β-ol-30-oic acid, reference compound] the area [2] was 7.7 ± 6.5 mm^2, the “inhibitory effect on stress-induced ulcer (in words)” value (stress-induced ulcer) was “showed the inhibitory effect” and the “effect upon Δ^4 -5α-5β-reductase (in words), 5α” value [3, 10] was “strongly inhibited the activity of the reductase”. The “inhibitory effect on aspirin-induced ulcer, experiment (a) (in words)” value (aspirin-induced ulcer [4]) was “scarcely showed the effect”, the inhibition at 0.173 µM (stock) ([5]; equimolar to aldosterone (0.173 μM), 37° C., 20 minutes, pH 7.2) was 87.7 ± 2.2% and the “effect upon Δ^4 -5α-5β-reductase (in words), 5β” value [5, 10] was “strongly inhibited the activity of the reductase”. The number of writhing [6] was 15.2 ± 3.6, the “effect on writhing (in words)” value ([6]; increasing doses) was “significantly decrease the number of writhing” and the “ulcer value (major axis × minor axis)” value ([7]; Experiment 1, 200 mg/kg (half dose twice/day), control 12.0 ± 2.3) was 10.4 ± 2.7. For the same compound, the “ulcer value (major axis × minor axis)” value ([7]; Experiment 1, 400 mg/kg (half dose twice/day), control 12.0 ± 2.3) was 8.6 ± 2.2, the “ulcer value (major axis × minor axis)” value ([7]; Experiment 2, 200 mg/kg (half dose twice/day), control 8.9 ± 1.7) was 11.5 ± 2.2 and the “ulcer value (major axis × minor axis)” value ([7]; Experiment 2, 400 mg/kg (half dose twice/day), control 8.9 ± 1.7) was 5.8 ± 1.0. For the same compound, the “ulcer value (major axis × minor axis)” value ([7]; Total, 200 mg/kg (half dose twice/day), control 10.4 ± 1.4) was 10.9 ± 1.7, the “ulcer value (major axis × minor axis)” value ([7]; Total, 400 mg/kg (half dose twice/day), control 10.4 ± 1.4, * p < 0.05) was 7.1 ± 1.2 and the “inhibitory effect on acetic acid ulcer (in words)” value ([7]; dose of 400 mg) was “clearly showed inhibitory effects”.

For `CC1(C)[C@@H](O)CC[C@]2(C)[C@H]3CC=C4[C@@H]5C[C@@](C)(C(=O)O)CC[C@]5(C)CC[C@@]4(C)[C@]3(C)CC[C@@H]12` [III, olean-12-ene-3β-ol-30-oic acid], the “inhibitory effect on stress-induced ulcer (in words)” value (stress-induced ulcer) was “showed the effect”, the ulcer index (stress-induced ulcer; 200 mg/kg p.o., 5th experiment, control 4.13 ± 0.53) was 3.38 ± 0.79 and the inhibition at 0.173 µM [3] was -0.5 ± 6.6%.

Work on `CC1(C)[C@@H](O)CC[C@]2(C)[C@H]3C(=O)C=C4[C@@H]5C[C@@](C)(CO)CC[C@]5(C)CC[C@@]4(C)[C@]3(C)CC[C@@H]12` [IV, olean12-ene-11-oxo-3β, 30diol] yielded an inhibition at 0.173 µM [3] of 26.5 ± 5.6%.

In the case of `CC(=O)Oc1ccccc1C(=O)O` [aspirin, reference compound], the “ulcer index (ulcer length×width)” value (aspirin-induced ulcer [8]) is reported as 7.11 ± 1.1 mm^2, the edema % ([9]; control 71 ± 6) is reported as 17 ± 3% and the inhibition at 200 mg/kg ([9]; Rattus norvegicus, po, 3 h, edema) is reported as 76.1%. The number of writhing [6] was 0.
